Assay results: patent US20170198011A1, “COMPOSITION FOR TREATING SEPSIS OR SEPTIC SHOCK COMPRISING THE PEPTIDE ORIGINATED FROM THE SMAD6” (Medpacto, Inc., priority 2011, published 2017)
Where no end group is shown, it is not given here. The star is where a group is joined. Palmitoyl = CCCCCCCCCCCCCCCC(=O)*

How the values were obtained:
IFN-β1 = IFN-β1 in peritoneal fluid (ELISA) and splenocytes (FACS) of CLP mice; type: in vivo; conditions: injected 2 and 14 hrs after CLP
From the text: FIG. 8C is a graph showing levels of the IFN-β1cytokine in peritoneal fluid from mice subcutaneously injected with Smaducin-6 or scrambled peptides at 2 and 14 hrs after sepsis induction by CLP, as analyzed by ELISA, the peritoneal fluid being taken 24 hrs after CLP induction,
FIG. 8D is a graph showing expression levels of IFN-β1 in splenocytes of mice subcutaneously injected with Smaducin-6 or scrambled peptides at 2 and 14 hrs after sepsis induction by CLP, as measured by FACS, the splenocytes being taken 24 hrs after sepsis induction,
To analysis the mechanism of the anti-apoptotic activity of Smaducin-6, an examination was made of the IFN-β1-induced TRAIL expression. In this regard, 2 and 14 hrs after CLP, the scrambled peptides or the Smaducin-6 peptide was injected to the mice, and the expression of IFN-β1 in the peritoneal fluid from the mice was analyzed using ELISA in the same manner as in Example 6. In splenocytes from each mouse group, the expression level of IFN-β1 was determined using flow cytometry (FACS). For flow cytometry, IFN-β1 was detected by FITC-conjugated anti-mouse IFN-β antibody (22400-3, interferon source), and stained before data analysis using CellQuest Pro software (BD Bioscience).

CXCR2 = CXCR2 surface expression on human neutrophils by FACS; type: cell-based; conditions: 100 nM for 2 hrs, then LPS 2 hrs
Description: FIG. 7C is a graph showing expression levels of CXCR2 on the surface of human neutrophils treated for 2 hrs with 100 nM scrambled peptides or Smaducin-6 and then for 2 hrs with LPS, as analyzed by FACS, and
To investigate the mechanism in which Smaducin-6 promotes peritoneal neutrophil migration, human neutrophils were treated for 2 hrs with 100 nM scrambled peptides or Smaducin-6 in advance of LPS treatment for 2 hrs. The expression of CXCR2, a chemokine receptor related with neutrophil migration, on the cell surface was analyzed using flow cytometry (FACS). Human neutrophils were isolated from normal human peripheral blood using Histopaque-1077 (Sigma) over a density gradient under the permission of the […] of Ajou University, School of Medicine (Suwon, Korea).

neutrophils = experiment: Peritoneal neutrophil migration in LPS septic shock mice; type: in vivo, BALB/c mice; conditions: LPS 60 mg/kg, injected 2 and 14 hrs after, neutrophils isolated at 24 hrs
From the text: FIG. 7B is a graph showing neutrophil counts in the peritoneal fluid taken from BALB/c mice with LPS-induced septic shock at 24 hrs after LPS injection,
In mice with CLP-induced sepsis, the bacterial clearance of Smaducin-6 was examined. Smaducin-6 or the scrambled peptides were subcutaneously injected into CLP mice from which peritoneal fluid was then extracted from the mice, and bacteria in the fluid was counted. […] An examination was made to see whether this bacterial clearance of Smaducin-6 was attributed to the intraperitoneal migration of neutrophils. To this end, 2 and 14 hrs after induction of septic shock by injecting 60 mg/kg of LPS, Smaducin-6 or the scrambled peptides were injected into septic shock mice, and 24 hrs after the induction of septic shock, neutrophils were isolated from the peritoneal cavity using Histopaque-1077 (Sigma). Mouse neutrophils were counted using Trypan Blue (Sigma).

inflammatory cytokines = experiment: Blood cytokine levels by ELISA in mice with CLP-induced sepsis; type: in vivo; conditions: blood 24 hrs after CLP
From the text: FIG. 6A to 6I show levels of cytokines in blood samples from mice subcutaneously injected twice with Smaducin-6 or scrambled peptides at 2 and 14 hrs after CLP induction, as analyzed by ELISA, the blood samples being taken 24 hrs after CLP induction, and
In animal models of CLP-induced sepsis, Smaducin-6 was examined for ability to downregulate inflammatory cytokines. Blood samples were taken from each experimental group, and various cytokines and chemokines related with inflammatory responses were quantitatively measured. To the mice with CLP-induced sepsis, the peptide of the present invention was injected 2 and 14 hrs after CLP, and blood samples were collected 24 hrs after CLP. Levels of cytokines and chemokines in the blood samples were determined by ELISA using various antibodies according to the manufacturer's protocol. The antibodies used in this ELISA included mouse IL-6 (88-7064), IFN-γ (88-7314), TNF-α (88-7346), IL-4 (88-7044), IL-10 (88-7104), TGF-β1 (88-7344), IL-12 p70 (88-7121) and IL-17A (88-7371) ELISA Ready-SET-GO from eBioscience, Mouse IL-1β ELISA Set (559603) from BD Sciences, Mouse CXCL2/MIP-2 Immunoassay (MM200) from R&D Systems, and Mouse IFN-β ELISA Kit from PBL Biomedical Laboratories.

[1] = tested on: lung, liver and spleen of CLP mice; experiment: Hematoxylin-eosin staining of tissues of CLP mice; type: in vivo, BALB/c mice; conditions: 16 mg/kg, compared to control
Description: For use in assay for therapeutic effects of Smaducin-6 on sepsis, BALB/c mice were subjected to CLP (cecal ligation puncture) to prepare suitable animal models of clinical sepsis. Two hours after CLP operation on the mice, Smaducin-6 was subcutaneously injected at a dose of 8 mg/kg, 12 mg/kg, or 16 mg/kg to the mice, and then three more times at regular intervals of 12 hrs. […] In this context, Smaducin-6 was initially injected at a dose of 16 mg/kg 2, 4, or 10 hrs after CLP operation, and then three more times at regular intervals of 12 hrs. Further, cells from various tissues of CLP mice were stained with hematoxylin-eosin to observe nucleus and cell morphology.

IL-6 = IL-6 immunoblot in spleen and liver of CLP mice; type: in vivo; conditions: immunoblotting
[2] = tested on: BALB/c mice with LPS-induced septic shock; experiment: Survival of mice with LPS-induced septic shock; type: in vivo; conditions: LPS 60 mg/kg intraperitoneal, 16 mg/kg injected four times every 12 hrs from 2 hrs after LPS
Description: FIG. 5D is a graph showing survival rates of BALB/c mice treated with 16 mg/kg Smaducin-6 or scrambled peptides after septic shock is induced by LPS;
Moreover, therapeutic effects of Smaducin-6 were examined in animal models of septic shock as well as CLP-induced sepsis. In this regard, LPS was intraperitoneally injected at a dose of 60 mg/kg into BALB/c mice, and from two hrs after LPS injection, Smaducin-6 was injected four times at regular intervals of 12 hrs into the mice.

NF-κB = experiment: NF-κB-mediated downstream signaling in LPS-stimulated RAW264.7 cells (luciferase, immunoblots); type: cell-based, mouse
Description: FIG. 4B is a graph showing luciferase activity in RAW264.7 cells transfected with a 5×NF-κB-Luc plasmid after treatment with scrambled peptides (Pal-Scram; 100 nM) or Smaducin-6 and then with LPS,

[3] = injected 2 and 14 hrs after CLP

Question: For “Smaducin-6: palmitic acid conjugated to N-terminus of the 20-amino-acid peptide of Smad6 position 422 to 441, GGRALVVRKVPPGYSIKVFD (SEQ ID NO: 1) (Palmitoyl-GGRALVVRKVPPGYSIKVFD)”, which “production of IFN-β1 in peritoneal fluid” value (IFN-β1; ELISA (FIG. 8C)) is on record?
Answer: inhibited

Question: And the “expression level of IFN-β1 in splenocytes” value (IFN-β1; FACS (FIG. 8D))?
Answer: inhibited

Question: And the “expression of CXCR2 on the cell surface” value (CXCR2)?
Answer: kept the expression of CXCR2 at a normal level

Question: What about the “migration of neutrophils to the peritoneal cavity” value (neutrophils) of the same substance?
Answer: increased

Question: And the “level of IFN-γ in the blood” value (inflammatory cytokines; [3])?
Answer: significantly reduced

Question: What about the “level of IL-1β in the blood” value (inflammatory cytokines; [3]) of the same substance?
Answer: significantly reduced

Question: And the “level of IL-6 in the blood” value (inflammatory cytokines; [3])?
Answer: significantly reduced

Question: And the “level of TNF-α in the blood” value (inflammatory cytokines; [3])?
Answer: significantly reduced

Question: What about the “level of IL-4 in the blood” value (inflammatory cytokines; versus scrambled peptide) of the same substance?
Answer: no statistically significant changes

Question: And the “level of IL-10 in the blood” value (inflammatory cytokines; versus scrambled peptide)?
Answer: no statistically significant changes

Question: What about the “level of IL-12 in the blood” value (inflammatory cytokines; versus scrambled peptide) of the same substance?
Answer: no statistically significant changes

Question: And the “level of IL-17A in the blood” value (inflammatory cytokines; versus scrambled peptide)?
Answer: no statistically significant changes

Question: What about the “level of TGF-β1 in the blood” value (inflammatory cytokines; versus scrambled peptide) of the same substance?
Answer: no statistically significant changes

Question: What about the “morphology of cells and tissues of the lung, the liver and the spleen” value [1] of the same substance?
Answer: morphologically restored

Question: What about the “IL-6 expression in the spleen and the liver” value (IL-6) of the same substance?
Answer: reduce

Question: And the “survival in LPS-induced septic shock” value [2]?
Answer: therapeutic

Question: And the “NF-κB-mediated luciferase gene expression” value (NF-κB; 5xNF-κB-Luc)?
Answer: suppress

Question: And the IKKα/β phosphorylation (NF-κB; immunoblot)?
Answer: suppress

Question: And the IκBα degradation (NF-κB; immunoblot)?
Answer: suppress
